In patent US7674881B2, “Convergent synthesis of proteins by kinetically controlled ligation” (The University of Chicago, priority 2005, dated 2010):
Where two headings read alike, the source gives them in different places.

Assays:
[1] = physchem
[2] = Solubility of thiol catalysts at pH 7 (Table 3)
[3] = pKa of thiol catalysts (Table 3)

| SMILES | Solubility at pH 7 | pKa [1] | Solubility at pH 7 [2] | pKa [3] |
| --- | --- | --- | --- | --- |
| Sc1ccccn1 [2-mercaptopyridine] | Soluble | -1.07 | – | – |
| Sc1ncccn1 [2-mercaptopyrimidine] | Very soluble | 2.03 | – | – |
| O=C(O)c1cccc(S)c1 [3-mercaptobenzoic acid] | Very soluble | 5.78 | – | – |
| Oc1cccc(S)c1 [3-mercaptophenol] | Very soluble | 6.5 | – | – |
| Nc1ccc(S)cc1 [4-aminothiophenol] | Very soluble | 8.86 | – | – |
| Sc1ccc(Cl)cc1 [4-chlorothiophenol] | – | – | Sparingly soluble | 6.11 |
| Oc1ccc(S)cc1 [4-mercaptophenol] | Soluble | 6.8 | – | – |
| O=C(O)Cc1ccc(S)cc1 [4-mercaptophenylacetic acid] | Very soluble | – | – | – |
| COc1ccc(S)cc1 [4-methoxythiophenol] | Slightly soluble | 6.75 | – | – |
| Cc1ccc(S)cc1 [4-methylthiophenol] | Sparingly soluble | 6.8 | – | – |
| O=[N+]([O-])c1ccc(S)cc1 [4-nitrothiophenol] | Soluble | – | – | – |
| SCc1ccccc1 [Benzyl mercaptan] | – | – | Sparingly soluble | 9.67 |
| O=S(=O)([O-])CCS.[Na+] [MESNA, sodium 2-mercaptoethanesulfonate] | Very soluble | 9.08 | – | – |
| Sc1ccccc1 [Thiophenol] | Slightly soluble | – | – | – |
